Measurements from patent US20170260169A1, “INHIBITORS FOR STEROID RESPONSE ELEMENTS AND RNA POLYMERASE II AND RELATED METHODS” (priority 2007, published 2017).
Entries after “also recorded” stand apart in the source; their conditions may differ. Like-named read-outs stand apart in the source and are kept apart here.

Assays:
[1] = mouse, microsomes, 1 h, 1 μM, pH 7.4
Procedure: (§2) Briefly, each polyamide was incubated with 1 mg/ml human or mouse microsomes at 37° C. The reaction was incubated in 100 mM KH2PO4, 2 mM NADPH, 3 mM MgCl2 at pH 7.4. Samples were also incubated in the absence of NADPH to detect NADPH-free degradation. After 60 min the samples were mixed with an equal volume of ice cold methanol stop solution. The mixture was allowed to sit on ice for at least 10 min and mixed with an equal volume of water. The samples were then centrifuged to remove the precipitates and the samples were analyzed by LC/MS/MS. Data represents % remaining by comparing with time zero concentration. The experiments were performed in duplicate.

[2] = human, microsomes, 1 h, 1 μM, pH 7.4
Procedure: as §2

LNCaP cells = assay: Cell viability WST-1 assay; format: cell-based; details: 72 hr incubation; read-out: half maximal inhibitory concentration, viability of LNCaP cells
Procedure: LNCaP cells were plated in clear bottom 96 well plates at 5,000-7,500 cells per well. The cells were allowed to adhere for 24-36 h before compounds were added in fresh media. Cell viability was determined by the WST-1 assay (Roche) for 77 and 85 after 24 h or 72 h incubation with cells. Cells in cytotoxicity rescue experiments were treated with 85 alone or with 3 μM for 24 h.
LNCaP cells were plated in clear bottom 96-well plates at 5,000-7,500 cells per well and allowed to adhere for 36-48 h. Compounds were then added in fresh media. Cell metabolic activity was determined by the WST-1 assay (Roche) after 72-h incubation with cells. Quantification was performed on a Perkin Elmer Victor 3 plate reader. Assays were performed in biological triplicates.

[3] = Liver microsomal stability, human; details: 1 μM, Human, 1 hr at 37° C., 1 mg/ml microsomes
Procedure: as §2

p53 target genes = assay: Quantitative RT-PCR of p53 target genes in LNCaP cells; format: cell-based
Procedure: RNA was extracted using RNEasy columns (Qiagen) according to manufacturer's protocols. cDNA was generated from RNA by reverse transcriptase (Transcriptor First Strand cDNA kit, Roche). Quantitative real-time RT-PCR was performed using SYBR Green PCR Master Mix (Applied Biosystems) on an ABI 7300 instrument. mRNA was measured relative to B glucuronidase as an endogenous control.
The cells were then treated with 1, 3, and 10 μM of 78 for 72 h. Total cellular RNA was extracted using RNEasy columns (Qiagen) following the manufacturer's protocols. Isolated RNA was reverse transcribed with Transcriptor First Strand cDNA kit (Roche). Quantitative real-time PCR was performed using SYBR Green PCR Master Mix (Applied Biosystems) on an ABI 7300 instrument. Amplification of p21, IGFBP3, and GADD45A cDNA was measured relative to β-glucuronidase using previously published primers (24). Experiments were performed in biological replicates.

RPB1 = RPB1 protein ELISA in LNCaP cells; format: cell-based
Procedure: […] Cells treated with DMSO vehicle and 1 μM doxorubicin for 24 h were used as control. Cellular RBP1 levels were determined by a RPB1 specific ELISA kit (Cusabio Life Sciences) according to manufacturer's instructions. Total cellular p53 protein level was determined with a pan-p53 ELISA kit (Roche) according to manufacturer's instructions. Assays were performed in biological triplicates.

[4] = Escalating single dose subcutaneous injections, male C57BL/6J mice (weight, histopathology, serum)
Procedure: Representative mice (n=2 per dosing group unless otherwise noted) were subjected to histopathology analysis by a veterinary pathologist. Blood from all mice was sampled and sent for analysis of serum markers of target organs. […] These mice were euthanized when significant duress was apparent.
All animal experiments were conducted under an approved protocol at the California Institute of Technology. Animals were allowed to adjust for 3 days after arrival before treatment. […] Animals were monitored daily for weight loss over 9 days and sacrificed. […] Weight was recorded on days of injection and at the experiment endpoint.
Sacrificed animals from weight loss experiments were fixed in 10% formalin and sent for histopathology analysis by IDEXX-RADIL. Histopathologic analysis was performed on the cecum, duodenum, heart, ileum, kidney, liver, lung, pancreas, spleen, and stomach. Tissue analysis was performed as a blind study to the identity of the animals.
Serum from treated animals were collected by retroorbital bleeding. Blood samples were centrifuged at 6,000 rpm for 5 min to collect the serum. Serum ALT, AST, total bilirubin, BUN, and creatinine levels were sent for analysis by IDEXX-RADIL. Serum analysis was performed as a blind study to the identity of the animals.

[5] = Multiple-dose subcutaneous injections, male C57BL/6J mice; format: in vivo; details: 1 mg/kg SC every 3 days
Procedure: In addition to single dose injections, the effects of repeated dosing of polyamides 77-80 in mice were examined. In this experiment, 8 week-old male C57BL/6J mice (n=3 per dosing group) were treated with 1 mg/kg of polyamides 77-80 by subcutaneous injection every 3 days, for a cycle of three injections and then sacrificed two days after the final injection (FIG. 31A). As in the single dosing experiments, two mice per group were subjected to histopathology analysis and all blood samples were sent for analysis. […] These mice were promptly euthanized.
(§1) Serum from treated animals were collected by retroorbital bleeding. […] All samples were sent for analysis at IDEXX-RADIL.

LNCaP xenografts = LNCaP xenografts in male NSG mice; format: in vivo; details: six injections
Procedure: All mice experiments were conducted under an approved protocol by the Institutional Animal Care and Use Committee of the California Institute of Technology. Male NOD scid gamma (NSG) mice were purchased from The Jackson Laboratory. The animals were individually caged and maintained on a standard light-dark cycle. NSG mice were engrafted with LNCaP cells (2.5 million cells) in a mixture of 1:1 media and matrigel in the left flank. Tumors were grown to ˜100 mm^3 (L×W^2) before beginning treatment with compound or vehicle. Py-Im polyamide 77 was administered once every 3 days in a 5% DMSO:PBS vehicle solution until the experiment endpoint.
To investigate if polyamide 77 could be detected in peripheral blood after SC injections, 120 nmol of 77 (in 5% DMSO/PBS) was injected into the right flank of four C57BL/6 mice. Blood was collected from anesthetized mice via retroorbital collection at 5 minutes, 4 h, and 12 h after injection, then processed by methods previously described and analyzed by HPLC (35). For measurement of serum PSA (KLK3) and uric acid, blood was collected from anesthetized mice via retroorbital collection at experimental endpoint and serum was separated from blood by centrifugation. Serum PSA (KLK3) was measured by ELISA (R&D systems) according to manufacturer's instructions. Uric acid was measured as described (36).
Tumors were resected immediately after euthanasia and fixed in neutral buffered formalin. Selected samples were embedded in paraffin, sectioned and stained with hematoxylin and eosin (H&E). Selected sections were assessed by deoxynucleotidyltransferase dUTP nick-end labeling (TUNEL) as described (45).
Mice experiments were conducted under an approved protocol by the Institutional Animal Care and Use Committee of the California Institute of Technology. Male C57BL6/J mice and male NSG mice were purchased from The Jackson Laboratory. All animals were maintained on a standard light-dark cycle. LNCaP cells (2.5 million cells) were engrafted in a mixture of 1:1 media and matrigel in the left flank of NSG mice. Tumors were allowed grow to ˜200 mm^3 (0.5×L×W^2) before treatment. Py-Im polyamide 78 was administered by SC injection once every 3 d at 1 mg/kg in a 20% (vol/vol) DMSO:Normal saline vehicle solution for 6 injections. Animals were sacrificed two days after the final injection. Animal weight and general health were monitored daily. Fourteen animals were used for each treatment group.

p53 = p53 protein ELISA in LNCaP cells; format: cell-based; details: polyamide 10 μM 72 hr; doxorubicin 1 μM 24 hr
Procedure: Cellular levels of RPB1 and p53 protein in LNCaP cells after treatment with 10 μM 3 for 72 h were determined by ELISA. Cells treated with DMSO vehicle and 1 μM doxorubicin for 24 h were used as control. Cellular RBP1 levels were determined by a RPB1 specific ELISA kit (Cusabio Life Sciences) according to manufacturer's instructions. Total cellular p53 protein level was determined with a pan-p53 ELISA kit (Roche) according to manufacturer's instructions. Assays were performed in biological triplicates.

[6] = Six-injection regimen of 78 in healthy male C57BL/6J mice, serum chemistry and hematology; format: in vivo; details: SC 1 mg/kg, six injections
Procedure: To assess the toxicity of the treatment regimen in healthy animals, male C57BL/6J mice were treated with an identical regimen as the tumor-bearing mice and were sacrificed two days after the final injection. Because the liver and kidney were identified as the target organs of toxicity in our previous study, we assessed relevant serum markers for liver and kidney pathology (FIG. 33D). […] To examine if 78 has an effect on circulating blood counts, whole blood was sampled before treatment and at the time of sacrifice.
as §1

[7] = Liver microsomal stability, mouse; details: 1 μM, Mouse, 1 hr at 37° C., 1 mg/ml microsomes
Procedure: as §2

In the case of `CC(=O)CC(c1ccccc1)c1c(O)c2ccccc2oc1=O` (stereo not drawn) [Warfarin], the “Mean remaining parent NADPH-free” value [1] is reported as 100%, the “Mean remaining parent with NADPH” value [1] is reported as 100% and the “Mean remaining parent NADPH-free” value [2] is reported as 100%. The “Mean remaining parent with NADPH” value [2] was 100%.
With `CC(=O)N[C@H](CCNC(=O)c1cc(NC(=O)c2cc(NC(=O)c3cc(NC(=O)c4nccn4C)cn3C)cn2C)cn1C)C(=O)Nc1cn(C)c(C(=O)Nc2cc(C(=O)Nc3cc(C(=O)Nc4cc(C(=O)NCCCN(C)CCCNC(=O)c5cccc(C(=O)O)c5)n(C)c4)n(C)c3)n(C)c2)n1` [Polyamide 78, ImPyPyPy-2-(R)^AcHNγ-ImPyPyPy-NHMe-IPA] the IC50 (LNCaP cells) was 2100 nM, the “Mean remaining parent NADPH-free” value [3] was 94.9% and the “Mean remaining parent with NADPH” value [3] was 95.3%. For the same compound, the “induction of p53 target genes” value (p53 target genes) was “induced by 78 in a dose-dependent fashion”, the RPB1 levels (RPB1; 1 μM for 72 h as printed) was “reduced RPB1 levels” and the RPB1 protein (RPB1; polyamide 10 μM 72 hr, doxorubicin 1 μM 24 hr) was “decreases”. For the same compound, the “tolerability, behavior and morbidity after single SC dose” value ([4]; 1, 3, 10 mg/kg) was “no change in behavior and appearance”, the “overall toxicity / organ damage” value ([4]; single SC 1, 3, 10 mg/kg) was “no detectable toxicity at any dose level tested; also recorded: no detectable animal toxicity at 10 mg/kg” and the “serum kidney markers creatinine and BUN” value ([4]; single SC dose) was “no elevation of these markers at the dose levels tested”. The “serum liver markers AST, ALT, total bilirubin” value ([4]; single SC dose) was “no elevation of these markers at the dose levels tested”, the “liver and kidney histopathology” value [5] was “no histopathologic lesions consistent with toxicity” and the “liver and kidney serum markers” value [5] was “no histopathologic lesions consistent with toxicity or alterations in liver and kidney serum markers”. For the same compound, the “weight and physical morbidity” value ([5]; three injections) was “no loss in weight or physical morbidities”, the “T/C (tumor weight)” value (LNCaP xenografts; SC 1 mg/kg every three days) was 52.4% and the “weight loss and distress during xenograft treatment” value (LNCaP xenografts; SC 1 mg/kg) was “minimal weight loss and no signs of distress”. For the same compound, the “cellular level of p53 protein” value (p53) was “increases”, the circulating blood counts [6] was “No significant hematologic changes” and the “serum markers for liver and kidney pathology” value [6] was “no elevations in AST, ALT, total bilirubin, creatinine, or BUN”. The “Mean remaining parent NADPH-free” value [7] was 100% and the “Mean remaining parent with NADPH” value [7] was 97.3%.
